# Reference: US20110236897A1, “NOVEL MARKERS FOR […] DISEASE CAUSED BY BRAIN INJURY AND USE THEREOF” (priority 2010, published 2011)
# “Also recorded” adds a separate entry of the source.
# System: cerebral cortex of F1 C57BL/6N mice
# Assay: Microarray expression profiling of F1 cerebral cortex after prenatal exposure to MDMA
# [1] = F1 female, prenatal MDMA 20 mg/kg/day vs vehicle
# [2] = F1 male, prenatal MDMA 20 mg/kg/day vs vehicle
# [3] = common to F1 females and males, cerebral cortex, compared with control group, hydrochloride
smiles,measurement,setting,value
CNC(C)Cc1ccc2c(c1)OCO2 (racemic) [MDMA],differentially expressed genes after prenatal exposure to MDMA (female group),"F1 female cerebral cortex at 11 weeks, dams 20 mg/kg/day p.o. GD 6 to PND 21, vs vehicle, Welch's T-test P<0.05, 1.5 fold change cut-off","1,784 genes"
same,genes under-expressed in the female cerebral cortex,[1],399 genes
same,genes up-regulated (over-expressed) in the female cerebral cortex,[1],"1,385 genes"
same,differentially expressed genes after prenatal exposure to MDMA (male group),"F1 male cerebral cortex at 11 weeks, dams 20 mg/kg/day p.o. GD 6 to PND 21, vs vehicle, Welch's T-test P<0.05, 1.5 fold change cut-off",804 genes
same,genes under-expressed in the male cerebral cortex,[2],469 genes
same,genes up-regulated in the male cerebral cortex,[2],335 genes
same,common genes selected from the differentially expressed genes of females and males,"common to 1,784 genes of females and 804 genes of males",90 genes
same,Expression change of the 1st to 36th genes of the 90 common genes,[3],reduced; also recorded: down-
same,Expression change of the 37th to 90th genes of the 90 common genes,[3],up-
same,effect on transcriptomic configuration of the cerebral cortex among offspring,"maternal ingestion during pregnancy and lactation, F1 generation, hydrochloride",considerably affected; also recorded: this change was permanent
